How the values were obtained:
[1] = Estimated oral LD50 in the mouse; details: in vivo, estimate, read-out: Evaluation DL 50
Description: Dans ce tableau, on indique en outre une estimation de la DL 50 des composés par voie orale chez la souris.

[2] = test system: ptosis réserpinique chez la souris; assay: Antagonism of reserpine-induced ptosis in the mouse (test A); assay type: in vivo; details: 60 min before reserpine i.p., ptosis score (RUBIN) 3 h after reserpine, pair of scores given
Method: L'activité psychopharmacologique et spécialement l'activité antidépressive des composés de formule I (dans lesquels R représente l'hydrogène ou le radical méthyle) est illustrée par le résultat des tests suivants : • A - Antagonisme du ptosis réserpinique chez la souris Le produit étudié (ou le.véhicule seul - gomme arabique et eau 1/1 - pour le lot témoin) est administré par intubation oesophagienne à des souris de sexe mâle, de souche OF1 IFFA CREDO de poids moyen 22 + 1 g, puis 60 minutes après traitement, tous les animaux reçoivent par voie intrapéritonéale 1 mg.kg de Réserpine base.
Le composé de l'exemple 1 et la quipazine prise comme référence, ont été administrés à raison de 40 mg.kg^-1 et le composé de l'exemple 2 à raison de 10 mg.kg^-1.
L'appréciation du ptosis (oeil gauche) est donnée selon la cotation de RUBIN et Coll. [J. Pharmacol. Exp. Ther. 120, 125-136 (195717 3 heures après l'administration de Réserpine.

[3] = test system: stéréotypies induites par l'amphétamine; assay: Potentiation of amphetamine-induced stereotypies in the rat (test B); assay type: in vivo, rats SPRAGUE-DAWLEY; details: for B-Potentialisation des stéréotypies induites par l'amphétamine (score global sur 3 heures): global score over 3 h, printed as treated/control
Method: B - Potentialisation des stéréotypies induites par l'amphétamine
Ce test est effectué sur des rats SPRAGUE-DAWLEY de souche OFA, provenant de l'élevage IFFA CREDO et d'un poids moyen de 150 + 10 g.
Le protocole mis en oeuvre est celui préconisé par SIMON et CHERMAT [J. Pharmacol. (Paris) 3 (2) 235-238 (1972)]%. Le produit étudié (ou le véhicule seul pour le lot témoin) est administré par voie intrapéritonéale à raison de 5 mg.kg^-1.
Les résultats expriment le score global sur 3 heures.

[4] = test system: comportement " muricide " chez le rat LONG-EVANS; assay: Antagonism of muricide behaviour in the LONG-EVANS rat (test C); assay type: in vivo; details: 5 mg.kg^-1 i.p., 60 min before the mouse is presented; percent decrease versus control group
Method: C - Antagonisme du comportement " muricide " chez le rat LONG-EVANS
Les animaux utilisés sont des rats de sexe mâle LONG-EVANS de souche pie-noire, en provenance de l'élevage IFFA CREDO, dont la période d'isolement dans des cages individuelles est supérieure à 6 mois. L'administration des composés (ou du véhicule pour les animaux de groupe de contrôle) est effectuée par voie intrapéritonéale à raison de 5 mg.kg ^1, 60 minutes avant la mise en présence d'une souris avec les rats isolés (n ≥ 8 ) .
Le.comportement classiquement décrit comme " muricide " /VALZELLI L. - Actualités Pharmacologiques, 24, 133-152, (1971)] est positif si le rat tue la souris en un temps inférieur ou égal à 3 minutes.
Les résultats sont exprimés en pourcentage de diminution par rapport à celui du groupe des animaux de contrôle.

[5] = 40 mg.kg^-1 oral (oesophageal intubation)
[6] = 5 mg.kg^-1 i.p., percent increase of global score over control

SMILES | LD50 [1] [mg/kg] | A-Activité anti-réserpinique vis-à-vis du ptosis [2, 5] | B-Potentialisation des stéréotypies induites par l'amphétamine (score global sur 3 heures) ([3]; 5 mg.kg^-1 i.p.) | B-Potentialisation des stéréotypies induites par l'amphétamine [3, 6] | C-Antagonisme du comportement muricide [4] | A-Activité anti-réserpinique vis-à-vis du ptosis ([2]; 10 mg.kg^-1 oral (oesophageal intubation)) | B-Potentialisation des stéréotypies induites par l'amphétamine ([3]; even at 20 I P)
Cc1cc2occc2c(N2CCNCC2)n1 [EXEMPLE 1, 6-methyl-4-(l-piperazinyl)-furo [3,2-c] pyridine] | 250 | 13 / 23 | 118/95 | 24,2% | 90% |  | 
c1cc2occc2c(N2CCNCC2)n1 [EXEMPLE 2, 4-(l-piperazinyl)-furo [3,2-c] pyridine] | 200 |  | 129/114 | 13,2% | 74% | 15 / 22 | 
c1ccc2nc(N3CCNCC3)ccc2c1 [QUIPAZINE, quipazine, reference compound] | 233 to 376 | 14 / 23 |  |  | 64,7% |  | Inactif même à 20 I P

From patent publication EP0041891A1, “6-Methyl-4-(1-piperazinyl)-furo(3,2-c)pyridines, process for their preparation and their therapeutic use” (RIOM LABORATOIRES- C.E.R.M. (Société Anonyme), priority 1980, dated 1981)
